Assay results as given in article PMC7889660, “Complex precursor structures of cytolytic cupiennins identified in spider venom gland transcriptomes” (Scientific Reports, 2021).
Read-outs that look alike come from different tables or passages of the source. Ends that are not written are not given here.

Key:
[1] = tested on: Drosophila melanogaster; settings: Drosophila flies, 0.05 µl injected, 50% of flies die after 24 h; cited from earlier work
Description: Table 3 Insecticidal activities of selected cupiennins, CsTx-16 variants, neurotoxins CsTx-1, CsTx-9, and CsTx-13, and cyto-insectotoxin CIT1a. Different concentrations of peptides were dissolved in 0.1 M ammonium acetate, pH 6.1, and 0.05 µl was injected into Drosophila flies. The lethal dose (LD50, pmol/mg fly), where 50% of the flies die after 24 h, was calculated with PRISM Vers. 6.07. * Data | column: LD50 / (pmol/mg fly)

[2] = tested on: Drosophila melanogaster; experiment: Insecticidal bioassay with Drosophila flies, lethal dose (LD50) 24 h after injection; assay type: in vivo; settings: for LD50: synthetic C-terminally amidated peptide in 0.1 M ammonium acetate pH 6.1, 0.05 µl injected intrathoracically into flight muscles of female flies (1- to 7-days old), 50% of flies die after 24 h, minimum five doses, each n = 20, PRISM Vers. 6.07
Description: The insecticidal activity of different cupiennins was investigated in a bioassay with Drosophila melanogaster and the lethal dose, where 50% of the insects die of intoxication after 24 h of injection, calculated. […] The shorter LPs such as Cu 3a, d, and Cu 4a, were with 12.4–38.5 pmol/mg fly less toxic.
Cupiennins 3a, 3b, 4a, 6a, 6b, 6d, 7b, 8, and the two-chain CsTx-16a1b1, and CsTx-16c1d1 were synthesized (all C-terminally amidated) by GeneCust, (Dulange, Luxembourg). Bioassays using Drosophila flies were performed as described elsewhere. Briefly, all peptides were dissolved in 0.1 M ammonium acetate, pH 6.1 and 0.05 µl injected intrathoracically into the flight muscles of female flies (1- to 7-days old). For each peptide, in minimum five different peptide doses were injection into the flies (each n = 20) and also a negative control with only buffer was injected (n = 10). Calculations of the lethal dose (LD50) were done with GraphPad PRISM Vers. 6.07 (GraphPad Software, San Diego, CA, USA).

Row | Substance | LD50 [1] [pmol/mg fly] | LD50 [2] [pmol/mg fly] | Toxicity ranking among tested cupiennins ([2]; Drosophila, LD50 after 24 h)
1 | Cu 1b: cytolytic linear cationic peptide, Cu 1 family, transcript C1 (GFGSLFKFLAKKVAKTVAKQAAKQGAKYIANKQMEG-NH2) | 4.7 |  | 
2 | Cu 3a: Cu 3 family linear peptide, synthesized by GeneCust (GFGSLFKFLGKKLLKTVAKQAAKKQMEG-NH2) |  | 18.7 | 
3 | Cu 6d: Cu 6 family linear peptide, synthesized by GeneCust (FINTIKLLIEKYREWKNKQSSG-NH2) |  | 23.2 | 
4 | Cu 8: Cu 8 family linear peptide of 20 residues, transcript B, synthesized by GeneCust (IWRMPKKVLKLLAAFRGKEG-NH2) |  | 159.7 | lowest toxicity
